Data published in patent publication US8329913B2, “Carbazole derivative, solvate thereof, or pharmaceutically acceptable salt thereof” (Zeria Pharmaceutical Co., Ltd., priority 2004, dated 2012).

target: T1, human PPARγ (Homo sapiens, UniProt P37231); assay: Human PPARγ antagonist assay (luciferase reporter in transfected CV-1 cells); type: cell-based; settings: CV-1 cells expressing human PPARγ and RXRα with reporter plasmid; pioglitazone 1 μM as stimulant; 24 hours; read-out: Human PPARγ antagonist activities, Inhibition IC50
T1 construct: 1.6 kb of fragment of the prepared plasmid pGEMT-hPPARg2 including human PPARγ gene; expressed in transfected cells; host or cells: CV-1 cells, transient transfection with pCI-hPPARg2, pCI-hRXRa and the reporter pGL3-PPRE3-TK
T1 sequence (P37231 1-505): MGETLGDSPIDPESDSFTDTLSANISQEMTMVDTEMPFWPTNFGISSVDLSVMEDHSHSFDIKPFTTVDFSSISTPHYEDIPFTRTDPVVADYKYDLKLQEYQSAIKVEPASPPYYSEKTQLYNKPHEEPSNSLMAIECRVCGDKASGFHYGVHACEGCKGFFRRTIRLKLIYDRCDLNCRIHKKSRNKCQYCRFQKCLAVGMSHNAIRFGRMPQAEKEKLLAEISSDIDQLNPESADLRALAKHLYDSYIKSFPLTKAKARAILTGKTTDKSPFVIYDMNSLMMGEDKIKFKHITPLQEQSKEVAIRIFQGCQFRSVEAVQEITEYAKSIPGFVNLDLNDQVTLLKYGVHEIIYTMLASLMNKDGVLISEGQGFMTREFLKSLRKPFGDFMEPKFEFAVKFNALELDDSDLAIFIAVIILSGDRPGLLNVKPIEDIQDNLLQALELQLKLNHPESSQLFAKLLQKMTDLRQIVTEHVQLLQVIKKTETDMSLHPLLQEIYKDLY
T1 sequence (P19793 1-462 partner): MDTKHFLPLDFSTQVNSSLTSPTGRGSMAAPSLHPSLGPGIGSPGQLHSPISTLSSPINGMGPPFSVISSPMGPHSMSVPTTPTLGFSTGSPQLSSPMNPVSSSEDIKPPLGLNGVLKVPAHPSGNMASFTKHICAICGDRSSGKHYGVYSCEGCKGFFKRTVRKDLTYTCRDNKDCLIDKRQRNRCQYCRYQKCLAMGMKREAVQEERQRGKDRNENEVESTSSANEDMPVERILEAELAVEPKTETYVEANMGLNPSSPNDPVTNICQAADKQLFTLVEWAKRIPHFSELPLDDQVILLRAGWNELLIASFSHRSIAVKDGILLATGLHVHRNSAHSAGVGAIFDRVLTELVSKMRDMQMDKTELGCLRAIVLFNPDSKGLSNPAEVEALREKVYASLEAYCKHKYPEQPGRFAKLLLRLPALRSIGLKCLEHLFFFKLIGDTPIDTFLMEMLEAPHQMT
Protocol: CV-1 cells (96 well plate), where human PPARγ and RXRα has expressed in the transient transfection of reporter plasmid (see reference 5a) were washed once with PBS (100 μL/well), and then supplemented with 100 μL/well […], as well as pioglitazone (not limited to pioglitazone shown as an example, but may be any PPARγ agonist) at a final concentration of 1 μM as a stimulant were added, and incubated in a 5% CO2 incubator at 37° C. for 24 hours. After removing the medium, the CV-1 cells were washed once with PBS (100 μL/well), and supplemented with 60 μL/well of 1× Passive Lysis Buffer (manufactured by Promega Corporation). The CV-1 cells were incubated at room temperature for 30 minutes, stirred, and then by using Dual-Luciferase Reporter Assay System (manufactured by Promega Corporation), luciferase activities of firefly and renilla were measured using 1420 ARVO Multilabel Counter (manufactured by Wallac Oy). Also, the same experiments as that described above were respectively carried out for the cases where only the above-mentioned stimulants (100 nM, 1 μM, 10 μM) were used, where only the above-mentioned test compounds were used, or where neither was used (nonsupplemented), and luciferase activities of firefly and renilla were measured. Values corrected by dividing the firefly luciferase activities by the renilla luciferase activities were calculated as specific activities and used for evaluations.
Human PPARγ2 antagonist activities of the test compounds were evaluated by using a percentage (inhibition) where the specific activity in case only […] was added is regarded as 0% and the specific activity in case the test compound and the stimulant were not added is regarded as 100%. Moreover, the concentration of the test compound indicating the inhibition rate of 50% was calculated as the IC50 value. Also, human PPARγ2 agonist activities of the test compounds were evaluated by using a percentage (activity) where the specific activity when nonsupplemented is regarded as 0% and the specific activity in case only 10 μM stimulant was added is regarded as 100%, from the specific activity in case only the test compound is used.
CV-1 cells were cultured in DMEM medium (manufactured by Invitrogen Corporation) including 10% fetal bovine serum (manufactured by Dainippon Pharmaceutical Co., Ltd.) in 225T-Flask (manufactured by Corning Costar). The cells were detached by 0.5 g/L trypsin-0.2 g/L EDTA (ethylene diamine tetra-acetic acid) (manufactured by Invitrogen Corporation), and then suspended in the DMEM medium including 10% fetal bovine serum to a cell concentration of 2×10^5 cells/mL. Thereafter, the cells were seeded into 96 well plate at 2×10^4 cells/0.1 mL/well, incubated in the 5% CO2 incubator at 37° C. overnight, and then the plasmids prepared by the above-mentioned reference 1a, reference 3a, and reference 4a were transfected into cells by using a lipofectamine reagent (manufactured by Invitrogen Corporation) according to the attached manual.
Namely, after CV-1 cells were cultured overnight, the cells were washed with PBS (100 μL/well). Thereafter the cells were incubated for 5 hours at 37° C./5% CO2 in the MEM medium (manufactured by Invitrogen Corporation) including 430 ng/mL of human PPARγ expression plasmid (pCI-hPPARg2) prepared by the reference 1a, 430 ng/mL of human RXRα expression plasmid (pCI-hRXRa) prepared by the reference 3a, and 140 ng/mL of the reporter plasmid (pGL3-PPRE3-TK) prepared by the reference 4a, 10 ng/mL of phRL-TK vector (manufactured by Promega Corporation) and 2 μL/mL of lipofectamine.

Structure (SMILES)	IC50
COc1cc(Cn2c3ccccc3c3c(OC(C(=O)O)c4ccccc4)cccc32)ccc1OCc1nc(-c2ccccc2)oc1C (racemic) [Example 36]	596 nM
CCC[C@H](Oc1cccc2c1c1ccccc1n2Cc1ccc(OCc2nc(-c3ccccc3)oc2C)c(OC)c1)C(=O)O [Example 41, sodium (S)-2-{9-[3-methoxy-4-((5-methyl-2-phenyl-oxazole-4-yl)methoxy)-benzyl]-9H-carbazole-4-yloxy}valerate]	220 nM
COc1cc(Cn2c3ccccc3c3c(Oc4ccccc4C(=O)O)cccc32)ccc1OCc1nc(-c2ccccc2)oc1C [Example 47, sodium 2-{9-[3-methoxy-4-((5-methyl-2-phenyloxazole-4-yl)methoxy)-benzyl]-9H-carbazole-4-yloxy}benzoate]	30 nM
COc1cc(Cn2c3ccccc3c3c(OC(C(=O)O)c4ccccc4)cccc32)ccc1OCc1nc(-c2ccco2)oc1C (racemic) [Example 6, (±)-2-{9-[4-((2-(furan-2-yl)-5-methyl-oxazole-4-yl)methoxy)-3-methoxy-benzyl]-9H-carbazole-4-yloxy}-2-phenylacetic acid]	905 nM
COc1cc(Cn2c3ccccc3c3c(OCCCC(=O)O)cccc32)ccc1OCc1nc(-c2ccccc2)oc1C [Example 12, 4-{9-[3-methoxy-4-((5-methyl-2-phenyl-oxazole-4-yl)methoxy)-benzyl]-9H-carbazole-4-yloxy}butyric acid]	725 nM
COc1cc(Cn2c3ccccc3c3c(OCCCCCC(=O)O)cccc32)ccc1OCc1nc(-c2ccccc2)oc1C [Example 21, 6-{9-[3-methoxy-4-((5-methyl-2-phenyl-oxazole-4-yl)methoxy)-benzyl]-9H-carbazole-4-yloxy}caproic acid]	5060 nM
CCCCC(Oc1cccc2c1c1ccccc1n2Cc1ccc(OCc2nc(-c3ccccc3)oc2C)c(OC)c1)C(=O)O (racemic) [Example 17, (±)-2-{9-[3-methoxy-4-((5-methyl-2-phenyl-oxazole-4-yl)methoxy)-benzyl]-9H-carbazole-4-yloxy}caproic acid]	320 nM
COc1cc(Cn2c3ccccc3c3c(OCC(C)(C)C(=O)O)cccc32)ccc1OCc1nc(-c2ccncc2)oc1C [Example 35]	509 nM
COc1cc(Cn2c3ccccc3c3c(OCCC(C)C(=O)O)cccc32)ccc1OCc1nc(-c2ccccc2)oc1C (single isomer, unassigned) [Example 52, sodium (−)-4-{9-[3-methoxy-4-((5-methyl-2-phenyl-oxazole-4-yl)methoxy)-benzyl]-9H-carbazole-4-yloxy}-2-methyl-butyrate]	173 nM
CCCCCC(Oc1cccc2c1c1ccccc1n2Cc1ccc(OCc2nc(-c3ccccc3)oc2C)c(OC)c1)C(=O)O (racemic) [Example 18, (±)-2-{9-[3-methoxy-4-((5-methyl-2-phenyl-oxazole-4-yl)methoxy)-benzyl]-9H-carbazole-4-yloxy}heptane acid]	829 nM
COc1cc(Cn2c3ccccc3c3c(OC(C(=O)O)c4ccccc4)cccc32)ccc1OCc1nc(-c2ccccc2)oc1C (racemic) [Example 26, (±)-2-{9-[3-methoxy-4-((5-methyl-2-phenyl-oxazole-4-yl)methoxy)-benzyl]-9H-carbazole-4-yloxy}-2-phenylacetic acid]	546 nM
COc1cc(Cn2c3ccccc3c3c(OCCCCC(=O)O)cccc32)ccc1OCc1nc(-c2ccccc2)oc1C [Example 20, 5-{9-[3-methoxy-4-((5-methyl-2-phenyl-oxazole-4-yl)methoxy)-benzyl]-9H-carbazole-4-yloxy}valeric acid]	1600 nM
COc1cc(Cn2c3ccccc3c3c(O[C@@H](C(=O)O)C(C)C)cccc32)ccc1OCc1nc(-c2ccccc2)oc1C [Example 44, sodium (R)-2-{9-[3-methoxy-4-((5-methyl-2-phenyl-oxazole-4-yl)methoxy)-benzyl]-9H-carbazole-4-yloxy}-3-methyl-butyrate]	462 nM
COc1cc(Cn2c3ccccc3c3c(Oc4ccc(C(=O)O)cc4)cccc32)ccc1OCc1nc(-c2ccccc2)oc1C [Example 49, sodium 4-{9-[3-methoxy-4-((5-methyl-2-phenyloxazole-4-yl)methoxy)-benzyl]-9H-carbazole-4-yloxy}benzoate]	1050 nM
COc1cc(Cn2c3ccccc3c3c(OCCCC(=O)O)cccc32)ccc1OCc1nc(-c2ccccc2)oc1C [Example 33]	1380 nM
COc1cc(Cn2c3ccccc3c3c(OCC(=O)O)cccc32)ccc1OCc1nc(-c2ccccc2)oc1C [Example 1, 2-{9-[3-methoxy-4-((5-methyl-2-phenyl-oxazole-4-yl)methoxy)-benzyl]-9H-carbazole-4-yloxy}acetic acid]	3150 nM
COc1cc(Cn2c3ccccc3c3c(OCc4ccc(C(=O)O)cc4)cccc32)ccc1OCc1nc(-c2ccccc2)oc1C [Example 46, sodium 4-((9-(4-((5-methyl-2-phenyloxazole-4-yl)methoxy)-3-methoxybenzyl)-9H-carbazole-5-yloxy)methyl)benzoate]	992 nM
COc1cc(Cn2c3ccccc3c3c(O[C@@H](C)C(=O)O)cccc32)ccc1OCc1nc(-c2ccccc2)oc1C [Example 39, sodium (S)-2-{9-[3-methoxy-4-((5-methyl-2-phenyl-oxazole-4-yl)methoxy)-benzyl]-9H-carbazole-4-yloxy}propionate]	617 nM
COc1cc(Cn2c3ccccc3c3c(O[C@H](C(=O)O)C(C)C)cccc32)ccc1OCc1nc(-c2ccccc2)oc1C [Example 40, sodium (S)-2-{9-[3-methoxy-4-((5-methyl-2-phenyl-oxazole-4-yl)methoxy)-benzyl]-9H-carbazole-4-yloxy}-3-methyl-butyrate]	308 nM

same assay, conditions: at 10 μM test compound; CV-1 cells expressing human PPARγ and RXRα; pioglitazone as stimulant; read-out: Human PPARγ antagonist activities, Inhibition % at 10 μM

Structure (SMILES)	inhibition at 10 µM
COc1cc(Cn2c3ccccc3c3c(OCC(=O)O)cccc32)ccc1OCc1nc(-c2ccco2)oc1C [Example 2, 2-{9-[4-((2-(furan-2-yl)-5-methyl-oxazole-4-yl)methoxy)-3-methoxy-benzyl]-9H-carbazole-4-yloxy}acetic acid]	47.4%
